# According to patent US6355799B1, “Substituted benzene compounds, process for their preparation, and herbicidal and defoliant compositions containing them” (ISK Americas Incorporated, priority 1997, dated 2002):
# Assays:
# Format in all cases: in vivo
# [1] = test system: lambsquarters (Chenopodium album, CHEAL); test: Post-emerge test, greenhouse herbicide activity screening; conditions: post-emerge, 14 days after application, rating scale 0-100
# Outline: (§1)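 Herbicidal damage is scored 0 (none) to 100 (complete plant death) two weeks after a simulated field spray. Rates span 15–1000 g ai/ha, delivered in acetone at 187 l/ha. For post-emergence treatments, plants have 2–3 leaves and the spray carries 0.25% v/v non-ionic surfactant.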
# [2] = test system: velvetleaf (Abutilon theophrasti, ABUTH); test: as above; conditions: post-emerge, 14 days after application, rating scale 0-100
# Outline: as §1
# [3] = test system: sicklepod (Cassia obtusifolia, CASOB); test: as above; conditions: post-emerge, 14 days after application, rating scale 0-100
# Outline: as §1
# [4] = test system: redroot pigweed (Amaranthus retroflexus, AMARE); test: as above; conditions: post-emerge, 14 days after application
# Outline: as §1
# [5] = test system: ivyleaf morningglory (Ipomoea hederacea, IPOHE); test: as above; conditions: post-emerge, 14 days after application, rating scale 0-100
# Outline: as §1
# [6] = test system: green foxtail (Setaria viridis, SETVI); test: as above; conditions: post-emerge, 14 days after application, rating scale 0-100
# Outline: as §1
# [7] = test system: large crabgrass (Digitaria sanguinalis, DIGSA); test: as above; conditions: post-emerge, 14 days after application, rating scale 0-100
# Outline: as §1
# [8] = test system: barnyardgrass (Echinochloa crus-galli, ECHCG); test: as above; conditions: post-emerge, 14 days after application, rating scale 0-100
# Outline: as §1
# [9] = test system: johnsongrass (Sorghum halepense, SORHA); test: as above; conditions: post-emerge, 14 days after application, rating scale 0-100
# Outline: as §1
# [10] = test system: lambsquarters (Chenopodium album, CHEAL); test: Pre-emerge test, greenhouse herbicide activity screening; conditions: phytotoxicity rating 0-100, 14 days after application
# Outline: (§2)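 Rating: 0–100 visual injury, 14 DAA. Application: acetone, 187 l/ha, 15–1000 g ai/ha, flat-fan track sprayer with nozzle 40–45 cm above soil or canopy. Post-emerge runs used 0.25% v/v surfactant on 2–3 leaf plants.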
# [11] = test system: velvetleaf (Abutilon theophrasti, ABUTH); test: as above; conditions: phytotoxicity rating 0-100, 14 days after application
# Outline: as §2
# [12] = test system: sicklepod (Cassia obtusifolia, CASOB); test: as above; conditions: phytotoxicity rating 0-100, 14 days after application
# Outline: as §2
# [13] = test system: ivyleaf morningglory (Ipomoea hederacea, IPOHE); test: as above; conditions: phytotoxicity rating 0-100, 14 days after application
# Outline: as §2
# [14] = test system: green foxtail (Setaria viridis, SETVI); test: as above; conditions: phytotoxicity rating 0-100, 14 days after application
# Outline: as §2
# [15] = test system: large crabgrass (Digitaria sanguinalis, DIGSA); test: as above; conditions: phytotoxicity rating 0-100, 14 days after application
# Outline: as §2
# [16] = test system: barnyardgrass (Echinochloa crus-galli, ECHCG); test: as above; conditions: phytotoxicity rating 0-100, 14 days after application
# Outline: as §2
# [17] = test system: johnsongrass (Sorghum halepense, SORHA); test: as above; conditions: phytotoxicity rating 0-100, 14 days after application
# Outline: as §2
# [18] = test system: redroot pigweed (Amaranthus retroflexus, AMARE); test: as above; conditions: phytotoxicity rating 0-100, 14 days after application
# Outline: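 Sandy loam pots; pre-emerge: sown 1 d pre-spray, surface-watered after, then bottom-watered. Post-emerge: sown 8–21 d before, 2–3 leaf stage, + 0.25% v/v NIS, bottom-watered. Acetone, 187 l/ha track spray, 15–1000 g ai/ha. 0–100 injury score, day 14.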
# [19] = test system: field corn (Zea mays L., var. Dekalb 535, CORN); test: Pre-emerge test, crop safety; conditions: crop damage rating 0-100, 14 days after application
# Outline: (§3)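 Applied at 15–1000 g ai/ha from acetone in 187 l/ha spray volume. Post-emergence applications included 0.25% v/v non-ionic surfactant and reached plants sown 8–21 days before. Pre-emergence applications were incorporated by surface watering. Efficacy or crop damage was rated on a 0–100 scale after 14 days.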
# [20] = test system: upland rice (Oryza sp., var. Tebonnet, RICE); test: Pre-emerge test, crop safety; conditions: crop damage rating 0-100, 14 days after application
# Outline: as §3
# [21] = test system: field corn (Zea mays L., var. Dekalb 535, CORN); test: Post-emerge test, crop safety; conditions: post-emerge, 14 days after application, rating scale 0-100
# Outline: (§4)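 Plants grown in 10 cm pots of sandy loam mix received acetone-dissolved compounds through a moving flat-fan nozzle. Doses ranged from 15 to 1000 g ai/ha. Pre-emerge pots were seeded one day earlier, post-emerge pots 8–21 days earlier. Fourteen days on, each pot was graded 0–100 for damage.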
# [22] = test system: upland rice (Oryza sp., var. Tebonnet, RICE); test: Post-emerge test, crop safety; conditions: post-emerge, 14 days after application, rating scale 0-100
# Outline: as §4
compound,measurement,setting,value
CCc1ccc(COC(=O)Nc2c(OC)c(Cl)cc(F)c2-n2c(=O)cc(C(F)(F)F)n(C)c2=O)cc1 [4-31],phytotoxicity rating CHEAL,[1]; 63 g ai/ha,100
same,phytotoxicity rating CHEAL,[1]; 250 g ai/ha,100
same,phytotoxicity rating ABUTH,[2]; 63 g ai/ha,100
same,phytotoxicity rating ABUTH,[2]; 250 g ai/ha,100
same,phytotoxicity rating CASOB,[3]; 63 g ai/ha,10
same,phytotoxicity rating CASOB,[3]; 250 g ai/ha,30
same,phytotoxicity rating AMARE,"[4]; 63 g ai/ha, rating scale 0-100 (0 no damage, 100 complete death)",100
same,phytotoxicity rating AMARE,"[4]; 250 g ai/ha, rating scale 0-100",100
same,phytotoxicity rating IPOHE,[5]; 63 g ai/ha,100
same,phytotoxicity rating IPOHE,[5]; 250 g ai/ha,100
same,phytotoxicity rating SETVI,[6]; 63 g ai/ha,20
same,phytotoxicity rating SETVI,[6]; 250 g ai/ha,40
same,phytotoxicity rating DIGSA,[7]; 63 g ai/ha,0
same,phytotoxicity rating DIGSA,[7]; 250 g ai/ha,10
same,phytotoxicity rating ECHCG,[8]; 63 g ai/ha,10
same,phytotoxicity rating ECHCG,[8]; 250 g ai/ha,10
same,phytotoxicity rating SORHA,[9]; 63 g ai/ha,0
same,phytotoxicity rating SORHA,[9]; 250 g ai/ha,10
same,Pre-emerge Herbicidal Activity CHEAL,[10]; 63 g ai/ha,90
same,Pre-emerge Herbicidal Activity CHEAL,[10]; 250 g ai/ha,100
same,Pre-emerge Herbicidal Activity ABUTH,[11]; 63 g ai/ha,30
same,Pre-emerge Herbicidal Activity ABUTH,[11]; 250 g ai/ha,100
same,Pre-emerge Herbicidal Activity CASOB,[12]; 63 g ai/ha,0
same,Pre-emerge Herbicidal Activity CASOB,[12]; 250 g ai/ha,10
same,Pre-emerge Herbicidal Activity IPOHE,[13]; 63 g ai/ha,0
same,Pre-emerge Herbicidal Activity IPOHE,[13]; 250 g ai/ha,40
same,Pre-emerge Herbicidal Activity SETVI,[14]; 63 g ai/ha,90
same,Pre-emerge Herbicidal Activity SETVI,[14]; 250 g ai/ha,100
same,Pre-emerge Herbicidal Activity DIGSA,[15]; 63 g ai/ha,50
same,Pre-emerge Herbicidal Activity DIGSA,[15]; 250 g ai/ha,100
same,Pre-emerge Herbicidal Activity ECHCG,[16]; 63 g ai/ha,10
same,Pre-emerge Herbicidal Activity ECHCG,[16]; 250 g ai/ha,30
same,Pre-emerge Herbicidal Activity SORHA,[17]; 63 g ai/ha,10
same,Pre-emerge Herbicidal Activity SORHA,[17]; 250 g ai/ha,20
same,Pre-emerge Herbicidal Activity AMARE,[18]; 63 g ai/ha,100
same,Pre-emerge Herbicidal Activity AMARE,[18]; 250 g ai/ha,100
same,Pre-emerge Herbicidal Activity CORN,[19]; 63 g ai/ha,0
same,Pre-emerge Herbicidal Activity CORN,[19]; 250 g ai/ha,10
same,Pre-emerge Herbicidal Activity RICE,[20]; 63 g ai/ha,10
same,Pre-emerge Herbicidal Activity RICE,[20]; 250 g ai/ha,30
same,phytotoxicity rating CORN (crop damage),[21]; 63 g ai/ha,10
same,phytotoxicity rating CORN (crop damage),[21]; 250 g ai/ha,25
same,phytotoxicity rating RICE (crop damage),[22]; 63 g ai/ha,20
same,phytotoxicity rating RICE (crop damage),[22]; 250 g ai/ha,40
